From patent publication US9549932B2, “2-(morpholin-4-yl)-1,7-naphthyridines” (BAYER PHARMA AKTIENGESELLSCHAFT, priority 2014, dated 2017)

Biological target: full-length human ATR protein (Homo sapiens (Human), UniProt Q13535)
Assay: Binding assay ATR (TR-FRET tracer displacement)
Details: tracer A, TR-FRET; read-out: ATR binding (tracer A) IC50
Excerpt: To determine of binding activity of the test compounds, full-length human ATR protein was expressed and purified together with ATRIP as described above. Furthermore, a fluorescently labelled compound (either tracer A or B as described above) was used as a tracer molecule. Detection of the binding event of the tracer was achieved by time-resolved fluorescence energy transfer (TR-FRET). We used an anti-GST-Terbium antibody (CisBio) that binds to the GST-tag at the N-terminus of ATR-kinase. […] Displacement of the fluorescent tracer by a test compound leads to a reduction of the TR-FRET-signal.
For the assay 50 nl of a 100-fold concentrated solution of the test compound in DMSO was pipetted into a black low volume 384well microtiter plate (MTP, Greiner Bio-One, Frickenhausen, Germany). […] The ATR-working solution was incubated for 30 min at 22° C. prior to dispensing to pre-form the complex of antiGST-Tb+GST-ATR+ATRIP. Then, 3 μl of the ATR-working solution were added to the test compound and the mixture was incubated for 10 min at 22° C. to allow pre-binding of the test compounds to ATR/ATRIP. Then, 2 μl of a 100 nM solution of either tracer A or B in assay buffer were added to the ATR-working solution. The resulting mixture was incubated for 30 min at 22° C. […] The dilution series were prepared separately before the assay on the level of the 100 fold concentrated solutions in DMSO by serial 1:3.4 dilutions in duplicate values for each concentration. IC50 values were calculated by a 4 parameter fit using standard software (GraphPad prism or equivalent).

Sequence of full-length human ATR protein (Q13535 other isoform, or with tags, fused parts or gaps): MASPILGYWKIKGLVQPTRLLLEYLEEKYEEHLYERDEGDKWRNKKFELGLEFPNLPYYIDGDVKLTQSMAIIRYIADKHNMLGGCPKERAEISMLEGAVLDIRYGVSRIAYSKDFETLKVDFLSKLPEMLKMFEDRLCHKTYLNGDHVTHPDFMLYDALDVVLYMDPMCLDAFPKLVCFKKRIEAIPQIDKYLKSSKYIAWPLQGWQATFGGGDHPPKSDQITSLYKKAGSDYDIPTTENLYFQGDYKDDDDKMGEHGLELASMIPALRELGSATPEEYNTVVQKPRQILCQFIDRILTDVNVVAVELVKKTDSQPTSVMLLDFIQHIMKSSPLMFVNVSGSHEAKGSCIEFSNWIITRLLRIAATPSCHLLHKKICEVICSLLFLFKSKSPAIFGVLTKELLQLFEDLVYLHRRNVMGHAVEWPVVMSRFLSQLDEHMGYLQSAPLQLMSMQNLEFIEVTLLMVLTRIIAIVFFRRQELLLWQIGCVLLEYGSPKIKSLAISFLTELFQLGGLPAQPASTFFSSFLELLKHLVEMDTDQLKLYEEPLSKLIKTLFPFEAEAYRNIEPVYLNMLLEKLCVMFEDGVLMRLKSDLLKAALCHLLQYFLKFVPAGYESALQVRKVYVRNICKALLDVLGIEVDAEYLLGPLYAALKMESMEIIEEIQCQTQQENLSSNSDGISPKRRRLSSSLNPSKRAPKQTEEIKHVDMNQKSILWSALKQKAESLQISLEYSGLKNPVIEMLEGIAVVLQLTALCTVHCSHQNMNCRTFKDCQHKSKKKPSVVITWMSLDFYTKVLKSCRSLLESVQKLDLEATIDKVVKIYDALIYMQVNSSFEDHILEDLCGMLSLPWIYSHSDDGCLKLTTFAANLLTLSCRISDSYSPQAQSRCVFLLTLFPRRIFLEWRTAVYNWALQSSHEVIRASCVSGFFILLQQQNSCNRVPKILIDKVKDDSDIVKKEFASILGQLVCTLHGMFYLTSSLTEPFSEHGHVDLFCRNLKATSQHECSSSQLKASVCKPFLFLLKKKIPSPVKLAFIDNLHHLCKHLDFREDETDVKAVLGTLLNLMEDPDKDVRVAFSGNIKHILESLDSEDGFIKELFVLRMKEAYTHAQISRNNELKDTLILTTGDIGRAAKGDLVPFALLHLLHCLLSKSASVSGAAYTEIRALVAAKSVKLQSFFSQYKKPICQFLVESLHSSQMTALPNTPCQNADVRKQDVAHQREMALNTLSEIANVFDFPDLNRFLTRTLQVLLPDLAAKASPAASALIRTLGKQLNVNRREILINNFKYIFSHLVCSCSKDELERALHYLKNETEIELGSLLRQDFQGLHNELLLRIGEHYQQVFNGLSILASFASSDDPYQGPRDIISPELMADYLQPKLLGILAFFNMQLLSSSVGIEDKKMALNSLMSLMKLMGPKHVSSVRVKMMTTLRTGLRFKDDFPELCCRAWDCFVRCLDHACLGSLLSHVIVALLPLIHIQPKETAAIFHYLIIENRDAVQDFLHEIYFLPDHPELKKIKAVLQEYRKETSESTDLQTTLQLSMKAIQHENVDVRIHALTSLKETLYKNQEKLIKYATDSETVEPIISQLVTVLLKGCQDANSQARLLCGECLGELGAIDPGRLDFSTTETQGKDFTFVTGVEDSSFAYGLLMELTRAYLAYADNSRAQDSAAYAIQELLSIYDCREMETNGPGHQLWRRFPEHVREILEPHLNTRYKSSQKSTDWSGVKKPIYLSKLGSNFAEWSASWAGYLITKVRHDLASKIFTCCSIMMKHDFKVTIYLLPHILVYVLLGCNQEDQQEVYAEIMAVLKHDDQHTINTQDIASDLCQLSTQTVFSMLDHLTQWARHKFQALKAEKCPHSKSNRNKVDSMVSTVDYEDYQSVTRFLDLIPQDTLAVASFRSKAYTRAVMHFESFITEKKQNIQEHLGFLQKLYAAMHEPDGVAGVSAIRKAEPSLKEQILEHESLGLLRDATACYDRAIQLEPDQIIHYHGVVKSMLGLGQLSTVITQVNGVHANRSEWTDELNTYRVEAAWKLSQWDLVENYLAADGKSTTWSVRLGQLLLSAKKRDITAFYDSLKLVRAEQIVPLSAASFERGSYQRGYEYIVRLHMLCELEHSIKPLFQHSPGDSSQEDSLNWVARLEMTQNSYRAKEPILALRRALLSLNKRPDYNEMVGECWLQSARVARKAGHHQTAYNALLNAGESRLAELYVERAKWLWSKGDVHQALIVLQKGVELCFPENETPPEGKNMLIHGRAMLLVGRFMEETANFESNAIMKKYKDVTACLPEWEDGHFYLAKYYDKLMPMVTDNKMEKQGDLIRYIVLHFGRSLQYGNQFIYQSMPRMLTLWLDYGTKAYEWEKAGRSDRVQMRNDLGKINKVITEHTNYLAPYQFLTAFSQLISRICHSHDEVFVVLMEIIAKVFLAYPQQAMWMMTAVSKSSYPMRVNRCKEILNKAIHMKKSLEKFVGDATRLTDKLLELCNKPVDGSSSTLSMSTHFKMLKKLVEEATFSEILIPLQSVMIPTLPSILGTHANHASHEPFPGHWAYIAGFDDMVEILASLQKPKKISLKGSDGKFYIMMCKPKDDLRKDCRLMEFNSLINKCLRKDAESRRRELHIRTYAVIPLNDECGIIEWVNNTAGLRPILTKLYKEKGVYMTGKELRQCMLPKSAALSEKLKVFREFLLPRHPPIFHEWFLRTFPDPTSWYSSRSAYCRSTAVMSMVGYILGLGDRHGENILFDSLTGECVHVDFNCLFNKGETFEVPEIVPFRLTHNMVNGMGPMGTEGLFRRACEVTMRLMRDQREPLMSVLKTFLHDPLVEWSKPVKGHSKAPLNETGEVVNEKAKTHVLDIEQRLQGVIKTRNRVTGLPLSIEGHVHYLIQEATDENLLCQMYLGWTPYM
Sequence of full-length human ATR protein (Q8WXE1 other isoform, or with tags, fused parts or gaps partner): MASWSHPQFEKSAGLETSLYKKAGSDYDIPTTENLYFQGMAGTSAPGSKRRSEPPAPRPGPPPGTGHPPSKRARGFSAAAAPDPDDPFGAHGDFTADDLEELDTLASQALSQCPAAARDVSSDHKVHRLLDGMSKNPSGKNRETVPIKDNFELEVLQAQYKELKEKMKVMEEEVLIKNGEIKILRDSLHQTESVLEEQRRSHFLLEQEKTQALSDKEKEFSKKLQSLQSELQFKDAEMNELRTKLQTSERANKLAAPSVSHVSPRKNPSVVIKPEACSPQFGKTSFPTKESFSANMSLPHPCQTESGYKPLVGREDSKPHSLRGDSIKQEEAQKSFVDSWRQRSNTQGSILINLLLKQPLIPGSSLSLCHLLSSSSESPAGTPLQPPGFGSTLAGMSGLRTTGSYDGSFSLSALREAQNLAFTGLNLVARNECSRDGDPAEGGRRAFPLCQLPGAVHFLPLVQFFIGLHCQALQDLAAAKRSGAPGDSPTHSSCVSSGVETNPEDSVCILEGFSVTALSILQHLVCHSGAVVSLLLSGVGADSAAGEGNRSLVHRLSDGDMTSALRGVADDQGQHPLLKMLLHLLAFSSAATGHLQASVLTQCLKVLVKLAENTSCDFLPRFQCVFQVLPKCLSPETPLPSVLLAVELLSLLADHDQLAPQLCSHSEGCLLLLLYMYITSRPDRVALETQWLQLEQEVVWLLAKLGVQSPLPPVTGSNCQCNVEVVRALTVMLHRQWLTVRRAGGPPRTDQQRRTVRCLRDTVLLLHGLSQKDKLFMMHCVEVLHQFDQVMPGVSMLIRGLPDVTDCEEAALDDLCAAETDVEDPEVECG

Compared with `C[C@@H]1COCCN1c1cc(N=S2(=O)CCOCC2)c2ccnc(-c3ccn[nH]3)c2n1` [Example 64, N-{2-[(3R)-3-methylmorpholin-4-yl]-8-(1H-pyrazol-5-yl)-1,7-naphthyridin-4-yl}-1,4λ^4-oxathian-4-imine 4-oxide], `C[C@@H]1COCCN1c1cc(N2CCNCC2)c2ccnc(-c3ccn[nH]3)c2n1` [Example 66, 2-[(3R)-3-methylmorpholin-4-yl]-4-(piperazin-1-yl)-8-(1H-pyrazol-5-yl)-1,7-naphthyridine] is 3.2-fold higher in IC50: 27.4 nM for the first, 87.2 nM for the second.

First: CS(C)(=O)=Nc1cc(N2CCOCC2)nc2c(-c3ccn[nH]3)nccc12 [Example 65, 4-{[dimethyl(oxido)-λ^6-sulfanylidene]amino}-2-(morpholin-4-yl)-8-(1H-pyrazol-5-yl)-1,7-naphthyridine]
Second: C[C@@H]1COCCN1c1cc(N2CCN(S(C)(=O)=O)CC2)c2ccnc(-c3ccn[nH]3)c2n1 [Example 82, 2-[(3R)-3-methylmorpholin-4-yl]-4-[4-(methylsulfonyl)piperazin-1-yl]-8-(1H-pyrazol-5-yl)-1,7-naphthyridine]
The IC50 of the first is 68-fold higher: 335 nM for the first, 4.9 nM for the second. The second is the more potent here.

First: CC(C)Oc1cc(N2CCOC[C@@H]2C)nc2c(-c3cc[nH]n3)nccc12 [Example 67, 4-isopropoxy-2-((S)-3-methylmorpholin-4-yl)-8-(1H-pyrazol-3-yl)-[1,7]naphthyridine]
Second: CC(C)Oc1cc(N2CCOCC2)nc2c(-c3cc[nH]c3)nccc12 [Example 68, 2-(morpholin-4-yl)-4-(propan-2-yloxy)-8-(1H-pyrrol-3-yl)-1,7-naphthyridine]
The IC50 of the first is 1.7-fold higher: 1000 nM for the first, 589 nM for the second. The second is the more potent here.

First: CCn1nccc1-c1cc(N2CCOC[C@H]2C)nc2c(-c3ccn[nH]3)nccc12 [Example 69, 4-(1-ethyl-1H-pyrazol-5-yl)-2-[(3R)-3-methylmorpholin-4-yl]-8-(1H-pyrazol-5-yl)-1,7-naphthyridine]
Second: C[C@@H]1COCCN1c1cc(-c2ccnn2C2CC2)c2ccnc(-c3ccn[nH]3)c2n1 [Example 80, 4-(1-cyclopropyl-1H-pyrazol-5-yl)-2-[(3R)-3-methylmorpholin-4-yl]-8-(1H-pyrazol-5-yl)-1,7-naphthyridine]
The IC50 of the first is 2.3-fold lower: 5.34 nM for the first, 12.1 nM for the second.

First: C[C@@H]1COCCN1c1cc(-c2cncn2C)c2ccnc(-c3ccn[nH]3)c2n1 [Example 70, 4-(1-methyl-1H-imidazol-5-yl)-2-[(3R)-3-methylmorpholin-4-yl]-8-(1H-pyrazol-5-yl)-1,7-naphthyridine]
Second: C[C@@H]1COCCN1c1cc(-c2cccn2C)c2ccnc(-c3ccn[nH]3)c2n1 [Example 91, 2-[(3R)-3-methylmorpholin-4-yl]-4-(1-methyl-1H-pyrrol-2-yl)-8-(1H-pyrazol-5-yl)-1,7-naphthyridine]
The IC50 of the first is 1.9-fold lower: 5.17 nM for the first, 10 nM for the second.

Going from `C[C@@H]1COCCN1c1cc(-c2ccccc2N)c2ccnc(-c3ccn[nH]3)c2n1` [Example 71, 2-{2-[(3R)-3-methylmorpholin-4-yl]-8-(1H-pyrazol-5-yl)-1,7-naphthyridin-4-yl]aniline] to `C[C@@H]1COCCN1c1cc(-c2ccccc2F)c2ccnc(-c3ccn[nH]3)c2n1` [Example 77, 4-(2-fluorophenyl)-2-[(3R)-3-methylmorpholin-4-yl]-8-(1H-pyrazol-5-yl)-1,7-naphthyridine], the IC50 rises from 5.65 nM to 8.92 nM (1.6-fold).

`C[C@@H]1COCCN1c1cc(-c2cccc(F)c2F)c2ccnc(-c3ccn[nH]3)c2n1` [Example 72, 4-(2,3-difluorophenyl)-2-[(3R)-3-methylmorpholin-4-yl]-8-(1H-pyrazol-5-yl)-1,7-naphthyridine] and `C[C@@H]1COCCN1c1cc(-c2cccnc2F)c2ccnc(-c3ccn[nH]3)c2n1` [Example 89, 4-(2-fluoropyridin-3-yl)-2-[(3R)-3-methylmorpholin-4-yl]-8-(1H-pyrazol-5-yl)-1,7-naphthyridine] are within 1.5-fold of each other in IC50: 6.33 nM for the first, 8.11 nM for the second.

Going from `Cc1nc(S(C)(=O)=O)ccc1-c1cc(N2CCOC[C@H]2C)nc2c(-c3ccn[nH]3)nccc12` [Example 73, 4-[2-methyl-6-(methylsulfonyl)pyridin-3-yl]-2-[(3R)-3-methylmorpholin-4-yl]-8-(1H-pyrazol-5-yl)-1,7-naphthyridine] to `Cc1nc(F)ccc1-c1cc(N2CCOC[C@H]2C)nc2c(-c3ccn[nH]3)nccc12` [Example 97, 4-(6-fluoro-2-methylpyridin-3-yl)-2-[(3R)-3-methylmorpholin-4-yl]-8-(1H-pyrazol-5-yl)-1,7-naphthyridine], the IC50 rises from 6.71 nM to 13.9 nM (2.1-fold).

Compared with `C[C@@H]1COCCN1c1cc(-c2ccc(S(C)(=O)=O)cc2F)c2ccnc(-c3ccn[nH]3)c2n1` [Example 74, 4-[2-fluoro-4-(methylsulfonyl)phenyl]-2-[(3R)-3-methylmorpholin-4-yl]-8-(1H-pyrazol-5-yl)-1,7-naphthyridine], `Cc1cc(S(C)(=O)=O)ncc1-c1cc(N2CCOC[C@H]2C)nc2c(-c3ccn[nH]3)nccc12` [Example 79, 4-[4-methyl-6-(methylsulfonyl)pyridin-3-yl]-2-[(3R)-3-methylmorpholin-4-yl]-8-(1H-pyrazol-5-yl)-1,7-naphthyridine] is 1.7-fold higher in IC50: 7.1 nM for the first, 12 nM for the second. The first is the more potent here.

First: C[C@@H]1COCCN1c1cc(-c2cc(F)ccc2N)c2ccnc(-c3ccn[nH]3)c2n1 [Example 75, 4-fluoro-2-[2-[(3R)-3-methylmorpholin-4-yl]-8-(1H-pyrazol-5-yl)-1,7-naphthyridin-4-yl]aniline]
Second: Cc1ccc(-c2cc(N3CCOC[C@H]3C)nc3c(-c4ccn[nH]4)nccc23)c(F)n1 [Example 93, 4-(2-fluoro-6-methylpyridin-3-yl)-2-[(3R)-3-methylmorpholin-4-yl]-8-(1H-pyrazol-5-yl)-1,7-naphthyridine]
The IC50 of the first is 1.6-fold lower: 6.97 nM for the first, 10.9 nM for the second.

Going from `C[C@@H]1COCCN1c1cc(-c2cncn2Cc2ccccc2)c2ccnc(-c3ccn[nH]3)c2n1` [Example 76, 4-(1-benzyl-1H-imidazol-5-yl)-2-[(3R)-3-methylmorpholin-4-yl]-8-(1H-pyrazol-5-yl)-1,7-naphthyridine] to `Cc1ccc(-c2cc(N3CCOC[C@H]3C)nc3c(-c4ccn[nH]4)nccc23)cn1` [Example 88, 2-[(3R)-3-methylmorpholin-4-yl]-4-(6-methylpyridin-3-yl)-8-(1H-pyrazol-5-yl)-1,7-naphthyridine], the IC50 rises from 8.91 nM to 15.3 nM (1.7-fold).

`Cc1ncc(-c2cc(N3CCOC[C@H]3C)nc3c(-c4ccn[nH]4)nccc23)s1` [Example 78, 2-[(3R)-3-methylmorpholin-4-yl]-4-(2-methyl-1,3-thiazol-5-yl)-8-(1H-pyrazol-5-yl)-1,7-naphthyridine] and `Cc1ccnc(F)c1-c1cc(N2CCOC[C@H]2C)nc2c(-c3ccn[nH]3)nccc12` [Example 90, 4-(2-fluoro-4-methylpyridin-3-yl)-2-[(3R)-3-methylmorpholin-4-yl]-8-(1H-pyrazol-5-yl)-1,7-naphthyridine] are within 1.5-fold of each other in IC50: 11 nM for the first, 10.6 nM for the second.

`C[C@@H]1COCCN1c1cc(-c2ccc(N3CCNCC3)cc2F)c2ccnc(-c3ccn[nH]3)c2n1` [Example 81, 4-[2-fluoro-4-(piperazin-1-yl)phenyl]-2-[(3R)-3-methylmorpholin-4-yl]-8-(1H-pyrazol-5-yl)-1,7-naphthyridine] and `COc1ccc(-c2cc(N3CCOC[C@H]3C)nc3c(-c4ccn[nH]4)nccc23)cn1` [Example 95, 4-(6-methoxypyridin-3-yl)-2-[(3R)-3-methylmorpholin-4-yl]-8-(1H-pyrazol-5-yl)-1,7-naphthyridine] are within 1.5-fold of each other in IC50: 14.3 nM for the first, 11.3 nM for the second.

First: C[C@@H]1COCCN1c1cc(N(C)CC(C)(C)C)c2ccnc(-c3ccn[nH]3)c2n1 [Example 83, N-(2,2-dimethylpropyl)-N-methyl-2-[(3R)-3-methylmorpholin-4-yl]-8-(1H-pyrazol-5-yl)-1,7-naphthyridin-4-amine]
Second: C[C@@H]1COCCN1c1cc(N(C)C2CC2)c2ccnc(-c3ccn[nH]3)c2n1 [Example 85, N-cyclopropyl-N-methyl-2-[(3R)-3-methylmorpholin-4-yl]-8-(1H-pyrazol-5-yl)-1,7-naphthyridin-4-amine]
The IC50 of the first is 2.2-fold lower: 5.38 nM for the first, 11.9 nM for the second. The first is the more potent here.

Compared with `C[C@@H]1COCCN1c1cc(N2CCC(CO)CC2)c2ccnc(-c3ccn[nH]3)c2n1` [Example 84, (1-{2-[(3R)-3-methylmorpholin-4-yl]-8-(1H-pyrazol-5-yl)-1,7-naphthyridin-4-yl}piperidin-4-yl)methanol], `C[C@@H]1COCCN1c1cc(N2CCn3ccnc3C2)c2ccnc(-c3ccn[nH]3)c2n1` [Example 86, 4-(5,6-dihydroimidazo[1,2-a]pyrazin-7(8H)-yl)-2-[(3R)-3-methylmorpholin-4-yl]-8-(1H-pyrazol-5-yl)-1,7-naphthyridine] is 1.7-fold higher in IC50: 6.6 nM for the first, 10.9 nM for the second. The first is the more potent here.

`C[C@@H]1COCCN1c1cc(N(C)c2ccc(F)cc2)c2ccnc(-c3ccn[nH]3)c2n1` [Example 87, N-(4-fluorophenyl)-N-methyl-2-[(3R)-3-methylmorpholin-4-yl]-8-(1H-pyrazol-5-yl)-1,7-naphthyridin-4-amine] and `COc1ncc(-c2cc(N3CCOC[C@H]3C)nc3c(-c4ccn[nH]4)nccc23)cc1C` [Example 96, 4-(6-methoxy-5-methylpyridin-3-yl)-2-[(3R)-3-methylmorpholin-4-yl]-8-(1H-pyrazol-5-yl)-1,7-naphthyridine] are within 1.5-fold of each other in IC50: 8.71 nM for the first, 12.7 nM for the second.

Same assay, conditions: tracer B, TR-FRET; read-out: ATR binding (tracer B) IC50

Compared with `CS(C)(=O)=Nc1cc(N2CCOCC2)nc2c(-c3ccn[nH]3)nccc12` [Example 65, 4-{[dimethyl(oxido)-λ^6-sulfanylidene]amino}-2-(morpholin-4-yl)-8-(1H-pyrazol-5-yl)-1,7-naphthyridine], `CC(C)Oc1cc(N2CCOCC2)nc2c(-c3cc[nH]c3)nccc12` [Example 68, 2-(morpholin-4-yl)-4-(propan-2-yloxy)-8-(1H-pyrrol-3-yl)-1,7-naphthyridine] is 1.7-fold higher in IC50: 276 nM for the first, 472 nM for the second.

Compound `CC(C)Oc1cc(N2CCOC[C@@H]2C)nc2c(-c3cc[nH]n3)nccc12` [Example 67, 4-isopropoxy-2-((S)-3-methylmorpholin-4-yl)-8-(1H-pyrazol-3-yl)-[1,7]naphthyridine] has an IC50 of 1270 nM.
